Source: paper PMC7367369, “A small library of chalcones induce liver cancer cell death through Akt phosphorylation inhibition” (Scientific Reports, 2020)

Legend:
Assay type in all cases: cell-based, human
[1] = tested on: pRb (Ser807/811) in Mahlavu cells; assay: Western blot, phosphorylated Rb protein levels; conditions: IC50 concentrations, 24 h
Protocol: (§1) Figure 4 Proteins targeted by the compounds. Human liver cancer cells (Mahlavu) were treated with the IC50 concentrations of the selected compounds or DMSO control for 24 h. […] (B–D) Quantification of the results using ImageJ software. (E) Schematic representation of the molecular mechanism of action of the compounds. Blocked signaling is crossed.
(§2) In the literature, it was shown that the anti-cancer effect of chalcones on uterus leiomyoma cells was through an increase in p21 protein[35]. Thus we also examined the levels of p21 in our cells. Furthermore, p21 is also a downstream element of Akt pathway. […] Therefore, the effect on Rb protein, which is also a downstream element of p21, was investigated in the presence of the chalcones 1, 9 and 11.
(§3) Poorly differentiated liver cancer cell line Mahlavu cells were cultured in 100 mm culture dish for 24 h. […] Anti-PARP antibody (Cell Signaling, 9532), pAkt (Ser473) antibody (Cell Signaling, 9271), Akt antibody (Cell Signaling, 9272), pNFkB-p65 (Ser468) antibody (Snat Cruz, sc101750), p21 antibody (Millipore, 05345), pRb (Ser807/811) antibody (Cell Signaling, 9308), Rb antibody (Santa Cruz, sc102), actin antibody (Sigma, A5441) and calnexin antibody (Sigma, C4731) were used as primary antibodies. Anti-rabbit (6154) and anti-mouse (0168) secondary antibodies were used. ImageJ tool ([42]) used for protein band intensity comparison. […]

[2] = tested on: PARP cleavage in Huh7 and Mahlavu cells; assay: Western blot, PARP cleavage (marker of apoptosis); conditions: 24 h
Protocol: Human liver cancer cells Mahlavu and Huh7 were treated with the compounds according to the IC50 values obtained from RT-CES experiments or DMSO controls for 72hr. […] We further assessed the effects of the selected chalcones 1, 9, and 11 on the cell cycle progression analysis of liver cancer cells. Human liver cancer cells Mahlavu and Huh7 were treated with the compounds according to the IC50 values obtained from RT-CES for 72 h. Then the DNA in the treated cells were stained with propidium iodide and analyzed with fluorescent-activated cell sorter. […] In order to confirm the induction of apoptosis in human liver cancer cells treated with the chalcones, cleavage of PARP protein (marker of apoptosis) was investigated.
Figure 3 Cell death induced by the chalcones. (A) Nuclear staining of the liver cancer cells treated with the chalcones. Human liver cancer cells (Huh7 and Mahlavu) were treated with the IC50 concentrations of the chalcones 1, 9, 11. After 72 h of incubation with the compounds or DMSO control, Hoechst (33258) staining was performed. Images were taken with fluorescent microscope (×40). Due to the strong cytotoxic activities of the chalcones the number of the cells in objective area was much less than DMSO controls. (B) Cell cycle distribution of liver cancer cells. Huh7 and Mahlavu cells were treated for 72 h with IC50 concentrations of the compounds or DMSO control. […]

p21 in Mahlavu cells = assay: Western blot, p21 protein levels; conditions: IC50 concentrations, 24 h
Protocol: as §1, §2, §3

[3] = tested on: pNFkB-p65 (Ser468) in Mahlavu cells; assay: Western blot, phosphorylation of NFkB-p65; conditions: IC50 concentrations, 24 h
Protocol: as §1
NFB is a transcription factor which is a fundamental component of inflammation pathway. This protein has also crucial roles in cell proliferation and apoptosis, thus cancer progression. […] Since the inflammation is one of the hallmarks of cancer, we also investigated the effect of our compounds on NFB protein. […] This form of NFB is the activated form which translocates into the nucleus to function as a transcription factor.
as §3, with “used.” for “used. ImageJ tool ([42]) used for protein band intensity comparison.”

SMILES | phosphorylated Rb protein levels [1] | PARP cleavage [2] | p21 protein levels (p21 in Mahlavu cells) | phosphorylation of NFB-p65 at Ser468 [3]
O=C(/C=C/c1ccccc1)c1ccccc1 [compound 9] | decreased significantly | PARP cleavage was present significantly | increased significantly | decreased significantly
O=C(/C=C/c1ccc(Cl)cc1)c1ccccc1 [compound 11] | decreased significantly | PARP cleavage was present significantly | increased significantly | decreased significantly
